We go through ten molecules from ChEMBL document CHEMBL1641384, “QSAR of adenosine receptor antagonists: Exploring physicochemical requirements for binding of pyrazolo[4,3-e]-1,2,4-triazolo[1,5-c]pyrimidine derivatives with human adenosine A(3) receptor subtype” (Bioorg Med Chem Lett, 2011).

The assay deals with T1, Adenosine receptor A3 (Homo sapiens, UniProt P0DMS8).
T1 sequence (P0DMS8 whole entry): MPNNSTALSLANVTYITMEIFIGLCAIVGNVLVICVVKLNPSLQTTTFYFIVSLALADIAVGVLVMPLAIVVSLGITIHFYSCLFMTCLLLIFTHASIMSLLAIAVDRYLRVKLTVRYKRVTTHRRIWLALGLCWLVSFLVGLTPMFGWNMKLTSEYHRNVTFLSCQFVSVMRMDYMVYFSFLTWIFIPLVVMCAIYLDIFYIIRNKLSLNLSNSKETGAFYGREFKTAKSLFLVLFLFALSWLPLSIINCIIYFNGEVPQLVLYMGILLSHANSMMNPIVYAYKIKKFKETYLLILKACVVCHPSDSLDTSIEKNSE
The experiment in a line: Displacement of [3H]MRE3008-F20 from human adenosine A3 receptor expressed in CHO cells after 120 mins. In kind it is cell-based. Background: Loss of bound radioactivity is the signal in a displacement assay; it reports binding, not function.

For `CCCn1cc2c(nc(NC(=O)Nc3ccc4c(c3)OCO4)n3nc(-c4ccco4)nc23)n1`, the affinity, expressed as Ki, was 0.302 nM. That is a sub-nanomolar value.

Regarding `CCn1cc2c(nc(N)n3nc(-c4ccco4)nc23)n1`, the Ki (usually the dissociation constant of the complex between target and ligand, obtained from inhibition or displacement) was 407 nM. Against the preceding molecule, the Ki is about 1300-fold higher.

Molecule `CCn1cc2c(nc(NC(=O)Nc3ccc(OC)cc3)n3nc(-c4ccco4)nc23)n1` showed an inhibition constant (Ki) of 0.794 nM.

Regarding `Cn1cc2c(nc(NC(=O)Nc3ccc4c(c3)OCO4)n3nc(-c4ccco4)nc23)n1`, affinity was put at a Ki of 0.24 nM.

As for `CCCCCCCCn1cc2c(nc(NC(=O)Nc3ccc(C)cc3)n3nc(-c4ccco4)nc23)n1`, the affinity corresponds to a Ki of 4.07 nM.

In turn, `CCCCn1cc2c(nc(NC(=O)Nc3ccc4c(c3)OCO4)n3nc(-c4ccco4)nc23)n1` showed a Ki of 0.501 nM.

For `CCCn1cc2c(nc(NC(=O)Nc3cccc(Cl)c3)n3nc(-c4ccco4)nc23)n1`, affinity was put at a Ki of 1.58 nM. This Ki lies about 3.2-fold higher than the previous one.

With `CCCn1cc2c(nc(N)n3nc(-c4ccco4)nc23)n1`, the Ki was 331 nM.

The molecule `CCn1cc2c(nc(NC(=O)Nc3ccc4c(c3)OCO4)n3nc(-c4ccco4)nc23)n1` had an inhibition constant (Ki) of 0.269 nM. This Ki lies about 1200-fold lower than the previous one.

`CCn1cc2c(nc(NC(=O)Nc3cccc(Cl)c3)n3nc(-c4ccco4)nc23)n1` showed a Ki of 0.912 nM.
